Reference: patent US8993626B2, “Methods of treatment using sterculic acid” (The United States of America, as represented by the …, priority 2010, dated 2015)

Experiments:
[1] = system: laser-induced CNV; experiment: Laser-induced choroidal neovascularization (CNV) rat model; assay type: in vivo, Brown Norway rats; conditions: day 7
Description: FIG. 2 depicts the results of choroidal neovascularization (CNV) suppression after a single intravitreal injection 48 hours after laser exposure. Box-and-whisker plot representations of volume of CNV lesions from rats treated with a single intravitreal injection as indicated in the x-axis. The y-axis represents neovessel lesion volume expressed in cubic microns. The number of lesions evaluated per condition (n) is depicted in the graph. Values inside of the box represent the central 50% of measurements. The horizontal line inside the box corresponds to the median values, and the vertical lines outside the boxes correspond to variances of measurements. *Highly significant difference compared with oleic acid and PBS.
FIG. 3 depicts the results of daily application of sterculic acid-containing drops to suppress laser-induced CNV. (A) Representative flat-mount projections from confocal microscope Z-series 7 days after laser. The red channel identifies vessels (Isolectin IB-4). Conditions are indicated above each projection. (B) Box-and-whisker plot representations of volume of CNV lesions from rats treated with daily drops as indicated in the x-axis. The y-axis represents neovessel lesion volume expressed in cubic microns. The number of lesions evaluated per condition (n) is depicted in the graph. Values inside of the box represent the central 50% of measurements. […]
FIG. 4 depicts the dose response of CNV suppression after daily application of sterculic acid-containing drops after laser exposure. […] The number of lesions evaluated per condition (n) is depicted in the graph. […]
Laser-induced CNV, flat mount preparations, and lesion evaluations were performed following established methods. […] Neovessels were visualized with confocal microscopy using choroid/RPE flat mounts labelled with Alexa Fluor 568-Isolectin IB4 to identify endothelial cells and neovessel volumes were quantified using VOLOCITY software. […]

[2] = system: ARPE19 cells; experiment: Phase-contrast images of cells after co-treatment with 15 μM 7KCh; assay type: cell-based, human; conditions: 1 μM fatty acid + 15 μM 7KCh, 24 hr
Text: FIG. 8 depicts phase-contrast images of ARPE19 cells at 24 hr after sterculic acid co-treatment with 7KCh.

[3] = system: stearoyl-CoA desaturase (SCD); experiment: SCD mRNA expression (qRT-PCR); assay type: cell-based
Description: FIGS. 18A and 18B depict (A) Dose response of SCD mRNA inductions by 0-12 μM 7KCh after 24 hr treatments. (B) The mRNA expressions of SCD in response to 8 μM 7KCh, 1 μM sterculic acid, 1 μM stearic acid, or the combinations of 7KCh with either sterculic acid or stearic acid. Error bars indicate the standard deviations. n=4.
The RNA was extracted using RNeasy Mini Kit (Qiagen, Valencia, Calif.). The reverse transcription was performed with reagents and kits from Invitrogen. Quantification of mRNA expression was performed using the Taqman gene expression assays and the following primers (VEGFa, Hs00173626_m1; IL-1β, Hs01555413_m1; IL-6, Hs00174131_m1; IL-8, Hs00174103_m1; IκBα, Hs00153283_m1; GRP78, Hs99999174_m1; CHOP, Hs01090850_m1; NOX2, Hs00166163_m1; NOX4, Hs01558199_m1; SCD, Hs00748952 s1; TNF-α, Hs00174128_m1; TGF-β1, Hs00998133_m1; GAPD, 4352934e). GAPD expression was used as an endogenous standard. All qRT-PCR experiments were measured in triplicates in an ABI 7500 Real-Time PCR Instrument (Applied Biosystems, Foster City, Calif.). The results of each treatment were normalized and presented in percentage relative to the vehicle-only control.
To determine the effect of 7KCh on SCD expression ARPE-19 cells were incubated with 4 μM 7KCh for 24 hr. 7KCh suppressed SCD mRNA expression by approximately 60-70% (FIG. 18A). […] Treatment of the cells with 8 μM 7KCh and 1 μM sterculic acid further suppress SCD expression to 86% (FIG. 18B). […] This is the only instance where 7KCh and sterculic acid worked synergistically rather than antagonistically.

[4] = system: Leukemia, SR-91; experiment: NCI in vitro anti-cancer cell line screen (SRB); conditions: Homo sapiens, 48 h
Description: (§1) The human tumor cell lines used in the cancer screen panel were grown in RPMI 1640 medium containing 5% FBS and 2 mM L-glutamine. The cells were inoculated into 96-well microtiter plates in 100 μl at plating density ranging from 5000 to 40,000 cell/well. […] Following drug addition, the plates were incubated for an additional 48 h. The assay was terminated by the addition of cold 10% TCA. The supernatant was discarded, and the plates were washed five times with water and air dried. Sulforhodamine B (SRB) solution (100 μl) at 0.4% (w/v) in 1% acetic acid was added to each well, and plates were incubated for 10 min at room temperature. After staining, unbound dye was removed by washing five times with 1% acetic acid and the plates were air dried. Bound stain was subsequently solubilized with 10 mM trizma base, and the absorbance was read on an automated plate reader at a wavelength of 515 nm.
(§2) A sulforhodamine B (SRB) end point was used to calculate the median growth inhibition (GI50). GI50 refers to the concentration at which the drug inhibits tumor cell growth by 50%.

[5] = system: Colon Cancer, HCC-2998; experiment: NCI in vitro anti-cancer cell line screen (SRB); conditions: Homo sapiens, HCC 2998, 48 h
Description: as §1, §2

[6] = system: Melanoma, UACC-62; experiment: NCI in vitro anti-cancer cell line screen (SRB); conditions: Homo sapiens, UACC-62, 48 h
Description: as §1, §2

[7] = system: ARPE19 cells; experiment: Cell Counting Kit-8 viability assay, 15 μM 7KCh-induced cytotoxicity; conditions: 1 μM fatty acid + 15 μM 7KCh
Description: 4×10^4 cells were seeded onto wells of a 96 well plate. […] Cell viability was determined as celluar dehydrogenase activity and expressed as the percentage of compound treated cells relative to that of untreated controls. error bar: standard deviation, n=4.
The kit allows sensitive colorimetric assays for the determination of the number of viable cells in cell proliferation and cytotoxicity assays. The amount of the formazan dye generated by the activity of dehydrogenases in cells is directly proportional to the number of living cells.
1) Cells were cultivated in a 96 well cell plate (Costar#3599, Corning Incorp, Corning, N.Y.).
2) The cell suspension (40,000 cells/100 μL) were added to 100 μL culture media per well and stood for 15 min at room temperature and cultured at 37° C. in a humidified 5% CO2 atmosphere.
3) Approximately 19 hr after seeding, when the cells were fully confluent, the cells were treated with either DMSO or 1 μM fatty acid in 200 μL of serum free media and subsequently added with 15 μM 7KCh in HPBCD. Then, the plate was swirled for mixing. The cells were also treated with DMSO and HPBCD, which served as vehicle control. The final DMSO and HPBCD concentrations in the media were in the range of 0.1% and 0.0675%, respectively.
Cell viability was expressed as the percentage of compound treated cells relative to that of untreated controls. Prior to measure cell viability, the cells were imaged live by Nikon TE 2000-U inverted fluorescent microscope.

Compound: CCCCCCCCC1=C(CCCCCCCC(=O)O)C1 [sterculic acid, 8-(2-octacyclopropen-1-yl)octanoic acid]
- CNV suppression ([1]; daily drops 0.1 mM after laser, compared to PBS): 66%
- CNV suppression ([1]; daily drops 1 mM after laser, compared to oleic acid): 45%
- CNV suppression ([1]; single intravitreal injection 1 mM in 1 μL, 48 hours after laser, compared to oleic acid and PBS injection): 33%
- cell morphological changes compared to 7KCh alone [2]: much less proportion of dead cell and cell debris
- inhibition of SCD expression ([3]; 1 μM sterculic acid alone): similarly to 8 μM 7KCh
- suppression of SCD expression ([3]; 8 μM 7KCh and 1 μM sterculic acid): 86%
- GI50 [4]: 10 µM
- GI50 [5]: 10 µM
- GI50 [6]: 1 µM
- protective effect against cytotoxicity by 7KCh (summary of the viability assays) [7]: greatest protective effect
